According to patent publication US8268778B2, “Flavivirus NS5A proteins for the treatment of HIV” (priority 2007, dated 2012):
Entries after “also recorded” stand apart in the source; their conditions may differ.

Legend:
CD4 = type: cell-based, human
HIV-1 isolate (X4) [1] = type: cell-based
HIV-1 isolate (X4) [2] = experiment: HIV replication (p24 antigen release) in Jurkat cell lines stably expressing NS5A proteins/peptides; type: cell-based; settings: Jurkat cell lines stably expressing the protein/peptide vs vector and frame-shift controls
CXCR4 = type: cell-based, human
SDF-1 = type: cell-based, human
Jurkat cells = type: cell-based, human

| Sequence | CD4 surface expression (CD4) | HIV replication (HIV-1 isolate (X4) [1]) | HIV replication (HIV p24 antigen release into culture supernatants) (HIV-1 isolate (X4) [2]) | CXCR4 surface expression (CXCR4) | SDF-1 release into culture supernatants (SDF-1) | CD4 mRNA regulation, in words (Jurkat cells) | regulation of Th2 cytokines, TNFα, and BCL2 mRNA (Jurkat cells) |
| --- | --- | --- | --- | --- | --- | --- | --- |
| DVIRAGPAWDSVAPAD [152-167scr, negative control, reference compound] | do not | Neither peptide inhibited HIV replication |  |  |  |  |  |
| VDGIPVAWDADARAPA (Hepatitis GB virus C) [S158A] | do not |  | inhibited HIV replication; also recorded: significantly less HIV replication than FS and VC |  |  |  |  |
| VDGIPVEWDADARAPA [S158E] | down-regulate CD4 |  | significantly inhibited; also recorded: significantly less HIV replication than all other cell lines | significantly less CXCR4 expressed | induced SDF-1 release |  |  |
| VDGIPVGWDADARAPA (Hepatitis GB virus C) [S158G] | do not |  | inhibited HIV replication; also recorded: significantly less HIV replication than FS and VC |  |  |  |  |
| VDGIPVSWDADARA (Hepatitis GB virus C) [152-165] |  |  | significantly reduced |  | induced |  |  |
| VDGIPVSWDADARAPA (Hepatitis GB virus C) [152-167] | down-regulate CD4 |  | significantly reduced |  |  | down-regulated | do not appear to be altered |
